Measurements published in patent publication US20230025377A1, “COMPOSITIONS AND METHODS FOR TREATING OR PREVENTING PRURITUS” (HLB THERAPEUTICS CO., LTD., priority 2020, published 2023).
“And” between values parts separate entries of the source, which are not always exact repeats. Equal values may be shown once. “Also recorded” adds a separate entry of the source.

Tests used:
Type in all cases: cell-based, human
HMC-1 cells [1] = assay: Histamine release in PMACI-treated HMC-1 cells (ELISA); conditions: for Histamine release: mean ± S.E.
Method: (§1) Cell culture: Human Mast Cell Line (HMC-1) cells (ATCC, Manassas, Va., USA) were maintained in IMDM (Iscove's Modified Dulbecco's Media) medium (Thermo Fisher Scientific) containing 10% fetal bovine serum (FBS; Hyclone, GE Healthcare Life Sciences) and 1% penicillin-streptomycin (Sigma-Aldrich, St. Louis, Mo., USA) in a 37° C. humidified incubator with 5% CO2. The medium was changed every 2-3 days.
(§2) HMC-1 cell treatment: HMC-1 cells were seeded in 12-well plates at a density of 7×10^5 cells per well and exposed to Tβ4 (1, 1.5, 3, and 6 μg/mL) for 1 hour before treatment with phorbol 12-myristate 13-acetate plus A23187 (PMACI; 30 nM of PMA plus 1.5 μM of A23187) to induce degranulation (activation) of mast cells and incubated at 37° C. After 2.5 hours, the medium was centrifuged (Hanil, UNION 32R PLUS) for 20 minutes at 1000×g. The supernate was transferred to another tube.
Allergic reaction factors: Histamine (HIS), Leukotrien B4 (LTB4), and Prostaglandin E2 (PGE2) amounts were evaluated to determine the effects of the disclosed composition on the release of allergic reaction factors. Histamine levels were measured using the HIS (Histamine) ELISA kit (Elabscience, Huston, Tex., USA) on the supernate of the culture medium. 50 μL of the sample was added to 96-plate wells, then 50 μL of Biotinylated Detection Ab working solution was added and incubated at 37° C. for 45 minutes. 100 μL of HRP Conjugate working solution was added and incubated at 37° C. for 30 minutes. 90 μL of Substrate reagent was added and incubated at 37° C. for 15 minutes. Washing was performed between each step. 50 μL of stop solution was added without washing. Absorbance was measured at 450 nm with a spectrophotometer (Biotek, PowerWave XS2, Winooski, Vt., USA).

HMC-1 cells [2] = assay: Leukotrien B4 (LTB4) release in PMACI-treated HMC-1 cells (ELISA); conditions: for Leukotrien B4 release: mean ± S.E.
Method: as §1, §2
The leukotriene B4 amount was measured using the LTB4 (Leukotriene B4) ELISA kit (MybioSource, San Diego, Calif., USA) on the supernate of the culture medium. 50 μL of the sample was added to 96-plate wells, then 50 μL of Biotinylated Detection Ab working solution was added and incubated at 37° C. for 45 minutes. 100 μL of HRP Conjugate working solution was added and incubated at 37° C. for 30 minutes. 90 μL of Substrate reagent was added and incubated at 37° C. for 15 minutes. Washing was performed between each step. 50 μL of stop solution was added without washing. Absorbance was measured at 450 nm with a spectrophotometer (Biotek, PowerWave XS2, Winooski, Vt., USA).

HMC-1 cells [3] = assay: Prostaglandin E2 (PGE2) release in PMACI-treated HMC-1 cells (ELISA); conditions: for PGE2 release: mean ± S.E.
Method: as §1, §2
The prostaglandin E2 (PGE2) amount was measured using a human PGE2 ELISA kit (Abeam, Cambridge, Mass.) on the supernate of the culture medium. 100 μL of the sample was added to 96-plate wells, then 50 μL of PGE2 Alkaline Phosphatase Conjugate was added. 50 ul of PGE2 Antibody was added and incubated on a shaker at room temperature for 45 minutes. 200 μL of pNPP substrate solution was added and incubated at 37° C. for 30 minutes. 90 μL of Substrate reagent was added and incubated at room temperature for 45 minutes. Washing was performed between each step. 50 μL of stop solution was added without washing. Absorbance was measured at 405 nm with a spectrophotometer (Biotek, PowerWave XS2, Winooski, Vt., USA).

HMC-1 cells [4] = assay: IL-4 release in PMACI-treated HMC-1 cells (ELISA); conditions: for IL-4 release: mean ± S.E.
Method: as §1, §2
(§3) Inflammatory cytokines: IL-4, IL-13, and TNF-α amounts were evaluated to determine the effects of the disclosed composition on the release of inflammatory cytokines. IL-4 and IL-13 amounts were measured using Human IL-4 (ab100570) and IL-13 (ab100553) ELISA kit (Abeam, Cambridge, Mass.) on the supernate of the culture medium. 100 μL of the sample was added to 96-plate wells, then 100 μL of Biotinylated IL-4 and IL-13 detection antibody were added and incubated at room temperature for 1 hour. 100 μL of HRP-streptavidin solution was added and incubated at room temperature for 45 minutes. 100 μL of TMB one step substrate reagent was added and incubated at room temperature for 30 minutes. Washing was performed between each step and incubated on a shaker. Finally, 50 μL of stop solution was added without washing. Absorbance was measured at 450 nm with a spectrophotometer (Biotek, PowerWave XS2, Winooski, Vt., USA).

HMC-1 cells [5] = assay: IL-13 release in PMACI-treated HMC-1 cells (ELISA); conditions: for IL-13 release: PMACI-treated HMC-1 cells, mean ± S.E.
Method: as §1, §2, §3

HMC-1 cells [6] = assay: TNF-α release in PMACI-treated HMC-1 cells (ELISA); conditions: for TNF-α release: PMACI-treated HMC-1 cells, mean ± S.E.
Method: as §1, §2
The TNF-α amount was measured using a human TNF-alpha ELISA kit (Abeam, Cambridge, Mass.) on the supernate of the culture medium. 100 μL of the sample was added to 96-plate wells, then 50 μL of Biotinylated TNF alpha detection antibody was added and incubated at room temperature for 3 hours. 100 μL of HRP-streptavidin solution was added and incubated at room temperature for 30 minutes. 100 μL of Chromogen TMB substrate solution was added and incubated at room temperature of the light-shielding state for 20 minutes. Washing was performed between each step and incubated on a shaker. 50 μL of stop solution was added without washing. Absorbance was measured at 450 nm with a spectrophotometer (Biotek, PowerWave XS2, Winooski, Vt., USA).

[7] = Tβ4 1 μg/ml, PMACI-treated HMC-1 cells
[8] = Tβ4 1.5 μg/ml, PMACI-treated HMC-1 cells
[9] = Tβ4 3 μg/ml, PMACI-treated HMC-1 cells
[10] = Tβ4 6 μg/ml, PMACI-treated HMC-1 cells

Substance: thymosin beta 4 (SDKPDMAEIEKFDKSKLKKTETQEKNPLPSKETIEQEKQAGES; Thymosin beta-4; UniProt P62328 2-44, looked up) [Tβ4, human protein; polypeptide composed of 43 amino acids having 4.9 kDa]
- Tβ4 concentration with inhibitory effect on histamine release (HMC-1 cells [1]; PMACI-treated HMC-1 cells): above 1 μg/ml
- Tβ4 concentration with the best effect of suppressing the increase of HIS release (HMC-1 cells [1]; PMACI-treated HMC-1 cells): 3 µg/mL
- Histamine release (HMC-1 cells [1]; [7]): 25.96 ± 0.78 pg/mL
- Histamine release (HMC-1 cells [1]; [8]): 23.91 ± 0.36 pg/mL
- Histamine release (HMC-1 cells [1]; [9]): 22.00 ± 1.10 pg/mL
- Histamine release (HMC-1 cells [1]; [10]): 23.46 ± 0.55 pg/mL
- Amount of HIS released compared to PMACI alone (HMC-1 cells [1]; Tβ4 1, 1.5, 3, 6 μg/ml (1-6 μg/ml), p<0.01): significant inhibitory effect; also recorded: significantly decreased
- Amount of HIS released compared to PMACI alone (HMC-1 cells [1]; Tβ4 less than 1 μg/ml): no significant difference
- Tβ4 concentration most effective in inhibiting the increase of LTB4 release (HMC-1 cells [2]; PMACI-treated HMC-1 cells): 1.5 µg/mL and 3 µg/mL
- Tβ4 concentration with inhibitory effect on LTB4 release (HMC-1 cells [2]; PMACI-treated HMC-1 cells): above 1.5 μg/ml
- Leukotrien B4 release (HMC-1 cells [2]; [8]): 29.94 ± 1.97 pg/mL
- Leukotrien B4 release (HMC-1 cells [2]; [9]): 28.91 ± 2.10 pg/mL
- Leukotrien B4 release (HMC-1 cells [2]; [10]): 32.06 ± 2.44 pg/mL
- Release level of LTB4 compared with PMACI treatment alone (HMC-1 cells [2]; Tβ4 1-6 μg/ml): significantly decreased
- Amount of LTB4 released compared to PMACI alone (HMC-1 cells [2]; Tβ4 1.5 and 3 μg/ml, p<0.05): significant inhibitory effect
- Tβ4 concentration most effective in inhibiting the increase of PGE2 release (HMC-1 cells [3]; PMACI-treated HMC-1 cells): 3 µg/mL
- Tβ4 concentration with inhibitory effect on PGE2 release (HMC-1 cells [3]; PMACI-treated HMC-1 cells): above 3 μg/ml
- PGE2 release (HMC-1 cells [3]; [8]): 97.43 ± 2.56 pg/mL
- PGE2 release (HMC-1 cells [3]; [9]): 94.96 ± 0.87 pg/mL
- Amount of PGE2 released compared to PMACI alone (HMC-1 cells [3]; Tβ4 3 μg/ml, p<0.05): significant inhibitory effect
- PGE2 release (HMC-1 cells [3]; [10]): 106.00 ± 3.13 pg/mL
- Release level of PGE2 compared with PMACI treatment alone (HMC-1 cells [3]; Tβ4 1-6 μg/ml): significantly decreased
- Tβ4 concentration with inhibitory effect on IL-4 release (HMC-1 cells [4]; PMACI-treated HMC-1 cells): above 1.5 μg/ml
- IL-4 release (HMC-1 cells [4]; [7]): 88.27 ± 10.18 pg/mL
- IL-4 release (HMC-1 cells [4]; [8]): 79.77 ± 4.27 pg/mL
- IL-4 release (HMC-1 cells [4]; [9]): 65.43 ± 7.20 pg/mL
- IL-4 release (HMC-1 cells [4]; [10]): 64.01 ± 3.02 pg/mL
- Release level of IL-4 compared with PMACI treatment alone (HMC-1 cells [4]; Tβ4 1-6 μg/ml): significantly decreased
- Amount of IL-4 released compared to PMACI alone (HMC-1 cells [4]; Tβ4 1.5, 3, and 6 μg/ml, p<0.05): significant inhibitory effect
- IL-13 release (HMC-1 cells [5]; Tβ4 1 μg/ml): 30.07 ± 2.33 pg/mL
- IL-13 release (HMC-1 cells [5]; Tβ4 1.5 μg/ml): 28.52 ± 2.83 pg/mL
- IL-13 release (HMC-1 cells [5]; Tβ4 3 μg/ml): 28.22 ± 2.33 pg/mL
- IL-13 release (HMC-1 cells [5]; Tβ4 6 μg/ml): 26.98 ± 2.45 pg/mL
- Amount of IL-13 released compared to PMACI alone (HMC-1 cells [5]; Tβ4 1, 1.5, 3, and 6 μg/ml (1-6 μg/ml), p<0.05): significant inhibitory effect; also recorded: significantly decreased
- TNF-α release (HMC-1 cells [6]; Tβ4 1 μg/ml): 513.77 ± 17.85 pg/mL
- TNF-α release (HMC-1 cells [6]; Tβ4 1.5 μg/ml): 380.23 ± 7.97 pg/mL
- Reduction of TNF-α release compared to PMACI alone (HMC-1 cells [6]; Tβ4 3 μg/ml): reduced 37.4%
- TNF-α release (HMC-1 cells [6]; Tβ4 3 μg/ml): 379.42 ± 8.03 pg/mL
- Reduction of TNF-α release compared to PMACI alone (HMC-1 cells [6]; Tβ4 6 μg/ml): 37.1%
- TNF-α release (HMC-1 cells [6]; Tβ4 6 μg/ml): 381.46 ± 12.75 pg/mL
- Amount of TNF-α released compared to PMACI alone (HMC-1 cells [6]; Tβ4 1, 1.5, 3, and 6 μg/ml (1-6 μg/ml), p<0.01): significant inhibitory effect; also recorded: significantly decreased
